In patent publication US20120122860A1, “SOLID FORMS OF SULFONAMIDES AND AMINO ACIDS” (Plexxikon, Inc., priority 2009, published 2012):

Columns and labels:
[1] = Dog PK study of solid forms and formulations; assay type: in vivo, Beagle dogs; conditions: Table 5B, forms of P-1021, dog, dose 150 mg/dog, 10 kg weight assumed
Description: Pharmacokinetic properties of various compositions prepared from the complexes may be assessed in male Sprague Dawley rats or male Beagle dogs, and compared to the properties of the free base compound. Rats are dosed daily with compound either by IV injections via surgically implanted jugular catheters or by oral gavage (PO). Each compound is prepared as a 20 mg/mL stock solution in dimethyl sulfoxide, which is further diluted to provide the dosing stock at the desired concentration for the IV or PO formulations. For IV dosing, the dosing stock is diluted into a 1:1:8 mixture of Solutol®:ethanol:water. For PO dosing, the dosing stock is diluted into 1% methylcellulose. In a cassette format, 5 compounds are diluted to 0.5 mg/mL each for IV dosing and 0.4 mg/mL each for PO dosing and dosed at 1 mg/kg (2 mL/kg) or 2 mg/kg (5 mL/kg), respectively. For IV dosed animals, tail vein blood samples are collected with lithium heparin anticoagulant at 5, 15, 30, and 60 minutes and 4, 8, and 24 hours post dosing each day. For PO dosed animals, tail vein blood samples are collected with lithium heparin anticoagulant at 30 minutes, 1, 2, 4, 8 and 24 hours post dosing each day. Dogs are dosed daily by oral capsules in a suitable formulation at 50 mg/mL. Cephalic vein blood samples are collected with lithium heparin anticoagulant at 30 minutes, 1, 2, 4, 8 and 24 hours post dosing each day. All samples are processed to plasma and frozen for later analysis of each compound by LC/MS/MS. Plasma levels as a function of time are plotted to assess the AUC (ng*hr/mL).
The arginine complex of N-[3-(5-chloro-1H-pyrrolo[2,3-b]pyridine-3-carbonyl)-2,4-difluoro-phenyl]-4-trifluoromethyl-benzenesulfonamide P-1021 was analyzed in a number of dog PK studies following the above or similar protocols. These were done primarily at Bridge Laboratories, Beijing, China, with one study done at Seventh Wave Laboratories LLC, Chesterfield, Mo. Plasma samples were analyzed to determine the plasma concentration (PPD Development, Madison, Wis.) at each time point from which the Cmax and AUC∞ were determined. In some instances, the materials are combined in the solvents indicated, and the solvent is removed by evaporation, or by spray drying where indicated. In these tables, unless indicated otherwise, the dose is mg/dog, and the Cmax/dose ((ng/mL)/(mg/kg)) and the AUC∞/dose ((ng*hr/mL)/(mg/kg)) are calculated assuming a 10 kg weight for the dogs.
This study was done at Seventh Wave, containers were provided with 13.259 g, 39.776 g or 66.301 g of this formulation and suspended in 360 mL of 1.5% Polysorbate 20 vehicle and dosed by oral gavage.
N-[3-(5-chloro-1H-pyrrolo[2,3-b]pyridine-3-carbonyl)-2,4-difluoro-phenyl]-4-trifluoromethyl-benzenesulfonamide P-1021 was analyzed in a dog PK study wherein the arginine complex of N-[3-(5-cyano-1H-pyrrolo[2,3-b]pyridine-3-carbonyl)-2,4-difluoro-phenyl]-4-trifluoromethyl-benzenesulfonamide P-1092 was also assessed.

Src = Src (Homo sapiens, UniProt P12931); assay: Kinase activity assay, Src
PI3Kα = PI3Kα (Homo sapiens, UniProt P42336); assay: Kinase activity assay, PI3Kα
TEC = molecular target: T1, TEC (Homo sapiens, UniProt P42680); assay: Kinase activity assay, TEC
T1 sequence (P42680 1-631): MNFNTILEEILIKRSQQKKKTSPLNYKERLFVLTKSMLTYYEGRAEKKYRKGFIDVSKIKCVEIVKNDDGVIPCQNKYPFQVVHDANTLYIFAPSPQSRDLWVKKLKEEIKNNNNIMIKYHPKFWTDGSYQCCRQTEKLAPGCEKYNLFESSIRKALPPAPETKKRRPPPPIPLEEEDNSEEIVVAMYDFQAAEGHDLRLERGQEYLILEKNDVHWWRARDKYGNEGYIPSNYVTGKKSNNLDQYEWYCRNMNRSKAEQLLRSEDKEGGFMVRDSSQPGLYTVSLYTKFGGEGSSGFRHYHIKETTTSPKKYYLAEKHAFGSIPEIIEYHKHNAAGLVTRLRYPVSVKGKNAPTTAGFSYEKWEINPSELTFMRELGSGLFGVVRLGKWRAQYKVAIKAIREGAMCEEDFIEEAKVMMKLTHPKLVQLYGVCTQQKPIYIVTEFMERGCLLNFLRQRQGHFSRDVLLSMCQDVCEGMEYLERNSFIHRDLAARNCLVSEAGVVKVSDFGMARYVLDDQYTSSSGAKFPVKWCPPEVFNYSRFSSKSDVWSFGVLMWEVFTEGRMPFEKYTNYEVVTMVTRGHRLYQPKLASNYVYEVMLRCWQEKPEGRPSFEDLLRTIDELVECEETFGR

C-Raf = C-Raf (Homo sapiens, UniProt P04049); assay: Kinase activity assay, C-Raf
Btk = Btk (Homo sapiens, UniProt Q06187); assay: Kinase activity assay, Btk
Kit = Kit (Homo sapiens, UniProt P10721); assay: Kinase activity assay, Kit
B-Raf = B-Raf (Homo sapiens, UniProt P15056); assay: Kinase activity assay, B-Raf; assay type: biochemical; conditions: read-out: activity toward kinase B-Raf, IC50
B-Raf V600E = B-Raf V600E (Homo sapiens, UniProt P15056, V600E); assay: Kinase activity assay, B-Raf V600E; assay type: biochemical; conditions: read-out: activity toward kinase B-Raf V600E, IC50
Kdr = Kdr (Homo sapiens, UniProt P35968); assay: Kinase activity assay, Kdr
Fms = Fms (Homo sapiens, UniProt P07333); assay: Kinase activity assay, Fms
MAP4K4 = MAP4K4 (Homo sapiens, UniProt O95819); assay: Kinase activity assay, MAP4K4

Chain of C-Raf (P04049 whole entry): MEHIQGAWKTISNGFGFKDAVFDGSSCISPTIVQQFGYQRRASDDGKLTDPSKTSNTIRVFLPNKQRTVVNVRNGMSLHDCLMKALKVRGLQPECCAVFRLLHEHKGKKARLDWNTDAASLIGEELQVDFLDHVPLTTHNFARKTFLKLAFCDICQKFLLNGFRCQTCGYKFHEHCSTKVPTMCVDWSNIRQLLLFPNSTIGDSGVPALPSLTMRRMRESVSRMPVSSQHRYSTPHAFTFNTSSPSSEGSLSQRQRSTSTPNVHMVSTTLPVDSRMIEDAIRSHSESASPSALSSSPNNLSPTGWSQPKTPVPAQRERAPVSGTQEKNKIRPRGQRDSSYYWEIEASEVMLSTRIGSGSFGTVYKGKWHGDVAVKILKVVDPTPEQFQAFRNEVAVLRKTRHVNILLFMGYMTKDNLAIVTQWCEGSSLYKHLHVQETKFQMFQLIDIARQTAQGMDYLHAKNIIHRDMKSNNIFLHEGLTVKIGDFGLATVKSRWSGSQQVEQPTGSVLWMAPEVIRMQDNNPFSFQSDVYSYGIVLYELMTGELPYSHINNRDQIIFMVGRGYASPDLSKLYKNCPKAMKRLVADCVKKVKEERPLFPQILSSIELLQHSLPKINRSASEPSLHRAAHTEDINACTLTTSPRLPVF
Chain of Kit (P10721 26-976): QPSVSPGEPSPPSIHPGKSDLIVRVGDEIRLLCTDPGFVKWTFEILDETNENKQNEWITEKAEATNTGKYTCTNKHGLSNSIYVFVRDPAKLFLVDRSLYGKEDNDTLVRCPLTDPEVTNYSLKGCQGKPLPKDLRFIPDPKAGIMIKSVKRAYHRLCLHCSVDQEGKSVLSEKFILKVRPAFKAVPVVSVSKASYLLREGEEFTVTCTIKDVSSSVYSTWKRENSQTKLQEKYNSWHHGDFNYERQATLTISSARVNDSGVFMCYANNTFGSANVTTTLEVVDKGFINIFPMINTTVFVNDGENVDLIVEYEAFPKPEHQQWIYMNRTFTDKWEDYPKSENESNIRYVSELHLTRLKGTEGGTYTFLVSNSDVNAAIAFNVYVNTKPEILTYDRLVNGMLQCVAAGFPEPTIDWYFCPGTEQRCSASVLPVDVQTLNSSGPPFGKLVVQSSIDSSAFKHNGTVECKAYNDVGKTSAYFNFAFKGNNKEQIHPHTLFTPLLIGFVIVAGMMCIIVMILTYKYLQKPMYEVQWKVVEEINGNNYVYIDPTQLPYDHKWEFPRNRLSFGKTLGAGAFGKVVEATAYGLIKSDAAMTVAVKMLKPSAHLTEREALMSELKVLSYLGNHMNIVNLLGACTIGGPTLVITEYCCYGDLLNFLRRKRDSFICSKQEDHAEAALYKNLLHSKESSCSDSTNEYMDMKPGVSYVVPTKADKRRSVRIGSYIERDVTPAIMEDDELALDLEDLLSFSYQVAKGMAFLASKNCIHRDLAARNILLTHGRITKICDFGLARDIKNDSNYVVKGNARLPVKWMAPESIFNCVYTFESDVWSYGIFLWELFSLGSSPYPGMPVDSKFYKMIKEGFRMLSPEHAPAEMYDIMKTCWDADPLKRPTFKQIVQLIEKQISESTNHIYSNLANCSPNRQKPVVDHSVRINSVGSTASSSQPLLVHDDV
Chain of Btk (Q06187 whole entry): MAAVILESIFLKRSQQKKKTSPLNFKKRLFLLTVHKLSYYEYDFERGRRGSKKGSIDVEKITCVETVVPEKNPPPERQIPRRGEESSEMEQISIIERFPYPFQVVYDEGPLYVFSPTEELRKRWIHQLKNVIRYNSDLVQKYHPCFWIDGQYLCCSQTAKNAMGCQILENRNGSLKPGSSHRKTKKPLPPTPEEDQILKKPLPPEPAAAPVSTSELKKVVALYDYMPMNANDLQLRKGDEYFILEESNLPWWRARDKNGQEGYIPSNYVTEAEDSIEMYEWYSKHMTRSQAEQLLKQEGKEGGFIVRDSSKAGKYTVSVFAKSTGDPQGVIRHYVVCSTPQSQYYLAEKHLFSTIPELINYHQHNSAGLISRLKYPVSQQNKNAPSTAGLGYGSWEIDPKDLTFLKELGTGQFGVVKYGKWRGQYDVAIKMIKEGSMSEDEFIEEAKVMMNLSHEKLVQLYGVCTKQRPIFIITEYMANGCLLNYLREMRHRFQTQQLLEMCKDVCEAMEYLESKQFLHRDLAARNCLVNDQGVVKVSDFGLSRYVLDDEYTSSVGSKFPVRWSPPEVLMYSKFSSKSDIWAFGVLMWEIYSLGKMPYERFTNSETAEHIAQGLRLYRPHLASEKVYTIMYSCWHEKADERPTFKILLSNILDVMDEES
Chain of B-Raf V600E (P15056 whole entry V600E): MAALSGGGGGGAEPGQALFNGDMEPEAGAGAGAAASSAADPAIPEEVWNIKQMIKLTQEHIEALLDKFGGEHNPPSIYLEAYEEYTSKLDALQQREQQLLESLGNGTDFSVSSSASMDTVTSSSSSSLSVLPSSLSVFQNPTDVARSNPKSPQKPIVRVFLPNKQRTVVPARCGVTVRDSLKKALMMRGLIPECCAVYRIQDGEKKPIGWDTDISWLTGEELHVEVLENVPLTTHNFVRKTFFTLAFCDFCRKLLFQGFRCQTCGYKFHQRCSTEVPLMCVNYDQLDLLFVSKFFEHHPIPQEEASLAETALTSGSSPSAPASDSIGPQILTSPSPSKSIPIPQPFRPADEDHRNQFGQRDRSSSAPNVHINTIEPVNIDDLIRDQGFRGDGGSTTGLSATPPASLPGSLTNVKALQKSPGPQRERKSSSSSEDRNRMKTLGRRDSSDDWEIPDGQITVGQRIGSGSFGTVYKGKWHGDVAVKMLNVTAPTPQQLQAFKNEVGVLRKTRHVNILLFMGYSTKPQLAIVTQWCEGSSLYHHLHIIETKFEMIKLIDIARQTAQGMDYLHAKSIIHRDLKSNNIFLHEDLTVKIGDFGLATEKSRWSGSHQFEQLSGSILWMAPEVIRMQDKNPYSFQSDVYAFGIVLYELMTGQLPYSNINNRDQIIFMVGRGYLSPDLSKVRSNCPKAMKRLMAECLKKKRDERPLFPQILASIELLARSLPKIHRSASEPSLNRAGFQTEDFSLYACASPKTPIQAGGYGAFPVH
Chain of Fms (P07333 20-972): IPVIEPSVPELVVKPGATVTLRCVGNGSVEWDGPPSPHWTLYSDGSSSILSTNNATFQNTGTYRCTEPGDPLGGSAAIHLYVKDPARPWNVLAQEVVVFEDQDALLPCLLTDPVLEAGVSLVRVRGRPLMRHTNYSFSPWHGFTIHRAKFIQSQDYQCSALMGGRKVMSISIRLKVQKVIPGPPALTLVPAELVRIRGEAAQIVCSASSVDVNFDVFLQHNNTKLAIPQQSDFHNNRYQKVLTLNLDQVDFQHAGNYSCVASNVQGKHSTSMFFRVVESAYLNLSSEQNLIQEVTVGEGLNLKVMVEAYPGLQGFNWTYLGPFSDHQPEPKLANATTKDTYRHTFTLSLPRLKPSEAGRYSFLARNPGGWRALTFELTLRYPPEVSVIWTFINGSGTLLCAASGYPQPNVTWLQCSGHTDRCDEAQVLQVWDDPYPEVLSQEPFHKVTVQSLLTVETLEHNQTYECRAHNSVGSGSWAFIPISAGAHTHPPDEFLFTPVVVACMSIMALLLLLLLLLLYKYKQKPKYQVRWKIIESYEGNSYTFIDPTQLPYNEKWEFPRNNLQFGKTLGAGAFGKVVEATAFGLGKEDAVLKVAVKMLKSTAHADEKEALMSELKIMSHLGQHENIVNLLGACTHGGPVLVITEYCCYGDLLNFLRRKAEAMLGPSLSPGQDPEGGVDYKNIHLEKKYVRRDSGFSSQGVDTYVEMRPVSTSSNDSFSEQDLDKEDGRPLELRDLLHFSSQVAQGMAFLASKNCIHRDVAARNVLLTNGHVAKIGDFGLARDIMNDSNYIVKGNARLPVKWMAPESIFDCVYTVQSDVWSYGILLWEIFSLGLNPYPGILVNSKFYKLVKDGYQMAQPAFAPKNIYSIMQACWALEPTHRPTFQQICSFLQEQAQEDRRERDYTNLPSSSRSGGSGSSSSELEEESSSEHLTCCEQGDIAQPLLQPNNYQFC
Chain of B-Raf (P15056 whole entry): as the sequence (P15056 whole entry V600E) above, with E600V counted along it
Chain of Src (P12931 whole entry): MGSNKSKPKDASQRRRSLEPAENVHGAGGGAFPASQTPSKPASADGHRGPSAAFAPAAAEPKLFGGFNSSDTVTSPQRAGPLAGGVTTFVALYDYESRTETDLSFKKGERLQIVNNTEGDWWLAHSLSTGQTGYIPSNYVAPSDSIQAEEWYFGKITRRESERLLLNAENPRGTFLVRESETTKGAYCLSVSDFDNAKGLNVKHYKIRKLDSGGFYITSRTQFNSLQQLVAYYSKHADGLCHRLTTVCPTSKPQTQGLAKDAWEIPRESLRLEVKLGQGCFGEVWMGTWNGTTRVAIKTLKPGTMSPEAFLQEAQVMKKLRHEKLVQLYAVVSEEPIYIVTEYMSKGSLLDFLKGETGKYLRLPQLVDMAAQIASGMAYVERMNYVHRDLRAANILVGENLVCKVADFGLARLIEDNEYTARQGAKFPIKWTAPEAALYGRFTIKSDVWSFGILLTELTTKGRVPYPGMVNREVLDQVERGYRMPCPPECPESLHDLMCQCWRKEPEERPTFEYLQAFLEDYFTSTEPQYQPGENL

SMILES	AUC∞/dose [1]	Cmax/dose [1]	IC50 (Src) [µM]	IC50 (PI3Kα) [µM]	IC50 (TEC) [µM]	IC50 (C-Raf) [µM]	IC50 (Btk) [µM]	IC50 (Kit) [µM]	IC50 (B-Raf) [µM]	IC50 (B-Raf V600E) [µM]	IC50 (Kdr) [µM]	IC50 (Fms) [µM]	IC50 (MAP4K4) [µM]
O=C(c1c(F)ccc(NS(=O)(=O)c2ccc(C(F)(F)F)cc2)c1F)c1c[nH]c2ncc(Cl)cc12 [Amorphous free base, N-[3-(5-chloro-1H-pyrrolo[2,3-b]pyridine-3-carbonyl)-2,4-difluoro-phenyl]-4-trifluoromethyl-benzenesulfonamide]	482 (ng*hr/mL)/(mg/kg)	33 (ng/mL)/(mg/kg)	–	–	–	–	–	–	–	–	–	–	–
CS(=O)(=O)Nc1cccc(-c2cnc3[nH]cc(C(=O)c4cc(NS(=O)(=O)c5cccnc5)ccc4F)c3c2)c1 [P-2139, Pyridine-3-sulfonic acid {4-fluoro-3-[5-(3-methanesulfonylamino-phenyl)-1H-pyrrolo[2,3-b]pyridine-3-carbonyl]-phenyl}-amide]	–	–	≤ 10	≤ 10	≤ 10	≤ 10	≤ 10	≤ 10	≤ 10	≤ 10	≤ 10	≤ 10	≤ 10
CS(=O)(=O)Nc1cccc(-c2cnc3[nH]cc(C(=O)c4cccc(NS(=O)(=O)c5cccnc5)c4)c3c2)c1 [P-2145, Pyridine-3-sulfonic acid {3-[5-(3-methanesulfonylamino-phenyl)-1H-pyrrolo[2,3-b]pyridine-3-carbonyl]-phenyl}-amide]	–	–	≤ 10	≤ 10	≤ 10	–	≤ 10	≤ 10	≤ 10	–	≤ 10	≤ 10	≤ 10
COc1ncc(-c2cnc3[nH]cc(C(=O)c4c(F)ccc(NS(=O)(=O)CC(C)C)c4F)c3c2)cn1 [P-2322, 2-Methyl-propane-1-sulfonic acid {2,4-difluoro-3-[5-(2-methoxy-pyrimidin-5-yl)-1H-pyrrolo[2,3-b]pyridine-3-carbonyl]-phenyl}-amide]	–	–	≤ 10	≤ 10	≤ 10	≤ 10	≤ 10	≤ 10	≤ 10	≤ 10	≤ 10	≤ 10	–
COc1ncc(-c2cnc3[nH]cc(C(=O)c4c(F)ccc(NS(=O)(=O)C5CCCCC5)c4F)c3c2)cn1 [P-2371, Cyclohexanesulfonic acid {2,4-difluoro-3-[5-(2-methoxy-pyrimidin-5-yl)-1H-pyrrolo[2,3-b]pyridine-3-carbonyl]-phenyl}-amide]	–	–	≤ 10	≤ 10	≤ 10	≤ 10	≤ 10	≤ 10	≤ 10	≤ 10	≤ 10	≤ 10	–
COc1ncc(-c2cnc3[nH]cc(C(=O)c4c(F)ccc(NS(=O)(=O)C5CCCC5)c4F)c3c2)cn1 [P-2372, Cyclopentanesulfonic acid {2,4-difluoro-3-[5-(2-methoxy-pyrimidin-5-yl)-1H-pyrrolo[2,3-b]pyridine-3-carbonyl]-phenyl}-amide]	–	–	≤ 10	≤ 10	≤ 10	≤ 10	≤ 10	≤ 10	≤ 10	≤ 10	≤ 10	–	–
CCN(CC)S(=O)(=O)Nc1ccc(F)c(C(=O)c2c[nH]c3ncc(-c4cnc(OC)nc4)cc23)c1F [P-2401, N,N-diethylamino-sulfonic acid {2,4-difluoro-3-[5-(2-methoxy-pyrimidin-5-yl)-1H-pyrrolo[2,3-b]pyridine-3-carbonyl]-phenyl}-amide]	–	–	≤ 10	≤ 10	≤ 10	≤ 10	≤ 10	≤ 10	–	≤ 10	≤ 10	–	–

More lines, now with the values ahead:

AUC∞/dose [1]	Cmax/dose [1]	IC50 (Src) [µM]	IC50 (PI3Kα) [µM]	IC50 (TEC) [µM]	IC50 (C-Raf) [µM]	IC50 (Btk) [µM]	IC50 (Kit) [µM]	IC50 (B-Raf) [µM]	IC50 (B-Raf V600E) [µM]	IC50 (Kdr) [µM]	IC50 (Fms) [µM]	IC50 (MAP4K4) [µM]	SMILES
–	–	≤ 10	≤ 10	≤ 10	≤ 10	≤ 10	≤ 10	≤ 10	≤ 10	≤ 10	–	–	COc1ncc(-c2cnc3[nH]cc(C(=O)c4c(F)ccc(NS(=O)(=O)c5ccccc5F)c4F)c3c2)cn1 [P-2041, N-{2,4-Difluoro-3-[5-(2-methoxy-pyrimidin-5-yl)-1H-pyrrolo[2,3-b]pyridine-3-carbonyl]-phenyl}-2-fluoro-benzenesulfonamide]
–	–	≤ 10	≤ 10	≤ 10	≤ 10	≤ 10	≤ 10	≤ 10	≤ 10	≤ 10	≤ 10	–	COc1ncc(-c2cnc3[nH]cc(C(=O)c4c(F)ccc(NS(=O)(=O)c5cc(F)ccc5F)c4F)c3c2)cn1 [P-2042, N-{2,4-Difluoro-3-[5-(2-methoxy-pyrimidin-5-yl)-1H-pyrrolo[2,3-b]pyridine-3-carbonyl]-phenyl}-2,5-difluoro-benzenesulfonamide]
–	–	≤ 10	≤ 10	≤ 10	≤ 10	≤ 10	≤ 10	≤ 10	≤ 10	≤ 10	≤ 10	–	COc1ncc(-c2cnc3[nH]cc(C(=O)c4c(F)ccc(NS(=O)(=O)c5c(F)cccc5F)c4F)c3c2)cn1 [P-2043, N-{2,4-Difluoro-3-[5-(2-methoxy-pyrimidin-5-yl)-1H-pyrrolo[2,3-b]pyridine-3-carbonyl]-phenyl}-2,6-difluoro-benzenesulfonamide]
–	–	≤ 10	≤ 10	≤ 10	≤ 10	≤ 10	≤ 10	≤ 10	≤ 10	≤ 10	≤ 10	–	COc1ncc(-c2cnc3[nH]cc(C(=O)c4c(F)ccc(NS(=O)(=O)c5ccc(F)cc5F)c4F)c3c2)cn1 [P-2044, N-{2,4-Difluoro-3-[5-(2-methoxy-pyrimidin-5-yl)-1H-pyrrolo[2,3-b]pyridine-3-carbonyl]-phenyl}-2,4-difluoro-benzenesulfonamide]
